The values that follow come from patent publication US20230364243A1, “CANCER-SELECTIVE TARGET DEGRADATION BY TARGETING GROUP CAGED PROTACS” (Beth Israel Deaconess Medical Center, Inc., priority 2021, published 2023).

For data set [1], the system named is HeLa cells. The data set can be described thus: Cell viability of HeLa cells (CCK-8 cell proliferation assay). The data set is classed as cell-based. As to conditions: 72 hours. The protocol:
(§1) Cell in 96-well plates were treated with drugs as indicated, and then incubated with 10 μl/well of CCK-8 (cell counting Kit-8) solution at for 1-2 hours, followed by the measurement of optical density at 450 nm.

The subject of data set [2] is HFF-1 cells. The data set can be described thus: Cell viability of HFF-1 normal cells (CCK-8 cell proliferation assay). The data set is classed as cell-based, human. Particulars: 72 hours. The procedure: as §1
On the technique in general: Tetrazolium dyes change colour on reduction, which living cells bring about.

In data set [3] the target is T1, IKZF3 (Homo sapiens, UniProt Q9UKT9).
T1 construct: endogenous in cells; host or cells: MM.1S (also MM.1S-CRBN+/+ and CRBN-/-)
The data set can be described thus: Western blotting of IKZF3 in MM.1S cells. It counts as cell-based. Particulars: FOLR1-positive MM.1S cells, 12 hours. The procedure:
(§2) For folic acid competitive degradation assay, cells were pretreated with folic acid (F8758, Sigma-Aldrich, 2.5 mM) for 2 hours, followed by the treatment of indicated PROTACs for indicated time. […] For proteasome or E3 ligase inhibition assay, cells were treated with MG132 (BML-P11020, ENZO Life Sciences, 10 μM) or MLN4924 (S7109, SelleckChem, 1 μM) another 12 hours.
(§3) Cells were lysed in EBC buffer (50 mM Tris-HCl pH 7.5, 120 mM NaCl and 0.5% NP-40) supplemented with protease inhibitors (Pierce) and phosphatase inhibitors (phosphatase inhibitor cocktailset I and II, Calbiochem). The protein concentrations of the lysates were measured using the Bio-Rad protein assay reagent on a Beckman Coulter DU-800 spectrophotometer. The lysates (40 μg protein) werethen resolved by 10% SDS-olyacrylamide gel electrophoresis (PAGE) at 130 V for 80 min and immunoblotted with indicated antibodies at 4° C. overnight, washed four times with Tris-buffered saline with 0.1% Tween-20 (TBST) buffer, incubated with secondary antibody for 1 hour at room temperature, and then washed 4 times with TBST.
(A western blot detects proteins with antibodies after separation by electrophoresis.)

For data set [4], the target named is Flag-tagged cereblon (CRBN) (Homo sapiens, UniProt Q96SW2). In words: Streptavidin pulldown competition with biotinylated pomalidomide for Flag-CRBN. As to conditions: for competition with biotinylated-pomalidomide to bind CRBN E3 ubiquitin ligase: caged, inert form, HEK293T cell lysis, 1 hour. The data set is classed as binding. The procedure:
Streptavadin pull down assays were performed on cell lysis derived from HEK293T (kidney) cells. Cell lysis was incubated with biotin or biotin-POMA, with or without pomalidomide, FA-S2_POMA or FA-C2-POMA for 1 hour. Additionally, some cell lysates had been pretreated with GSH.
The streptavidin pulldown assay for biotin-pomalidomide was performed as previous reported. Briefly, Flag-CRBN was expressed in HEK293T cells lysed in PROTAC buffer B (50 mM Tris-HCl pH7.5, 150 mM NaCl and 0.5% NP-40) supplemented with protease inhibitors (Pierce) and phosphatase inhibitors (phosphatase inhibitor cocktail set I and II, Calbiochem). A total of 1 mg of cell lysate was incubated with 10 μl of 10 mM biotin-pomalidomide and 8 μl of streptavidin beads for 1 hour at 4° C. in the absence or presence of pomalidomide or its derivates. Alternatively, Folate-S2-pomalidomide or Folate-C2-pomalidomide were incubated with 5 mM GSH and then subjected to the competition bindingassay. Then, the beads were washed four times with NETN buffer (20 mM Tris-HCl pH 7.5, pH 8.0, 100 mM NaCl, 1 mM EDTA and 0.5% NP-40), before being resolved by SDS-PAGE and immunoblotted with Flag-tag antibody.

Data set [5] has as its system MM.1S cells. The data set can be described thus: Cell viability / proliferation of MM.1S cells (CCK-8). It counts as cell-based. Particulars: for IC50: Homo sapiens, MM1.S. The procedure: (§4) For folic acid competitive degradation assay, cells were pretreated with folic acid (F8758, Sigma-Aldrich, 2.5 mM) for 2 hours, followed by the treatment of indicated PROTACs for indicated time. For endocytosis inhibition, cells were pretreated with Pitostop 2 (SML1169, Sigma-Aldrich, 1-30 μM) or MCD (21633, Cayman, 0.03-1 mM) for 12 hours, followed by co-treatment with indicated PROTACs for another 12 hours. For proteasome or E3 ligase inhibition assay, cells were treated with MG132 (BML-P11020, ENZO Life Sciences, 10 μM) or MLN4924 (S7109, SelleckChem, 1 μM) another 12 hours. For GSH-stimulating assay, cells were treated with S-Acetyl-GSH (29624, Cayman, 1 mM) with indicated PROTACs for 12 or 72 hours.
as §1

Data set [6] can be described thus: Release of active compound after incubation with DTT in PBS at 37° C., HPLC analysis. It counts as physicochemical. As to conditions: DTT (2 equiv), 37° C. in PBS, HPLC. The protocol:
FA-S2-POMA and the negative control FA-C2-POMA were incubated with dithiothreitol (DTT) under physiological conditions (37° C. in phosphate buffered saline (PBS)) and then subjected to HPLC analysis.
The effects of these folate caged PROTACS on ALK fusion protein degradation was assessed in cancer cells. FA-S2-MS4048 and FA-C2-MS4048 were incubated with DTT at 37° C. in PBS. […] Furthermore, compared to FA-S2-POMA (FIG. 11B), the release rate of FA-S2-MS4048 is slower.

In data set [7] the target is IKZF3 (Homo sapiens, UniProt Q96SW2+Q9UKT9). In words: Western blotting of IKZF3 in MM.1S cells. Set-up: endogenous in cells; host or cells: MM.1S (also MM.1S-CRBN+/+ and CRBN-/-). The data set is classed as cell-based. The procedure:
as §2, §3

For data set [8], the target named is T2, IKZF1 (Homo sapiens, UniProt Q13422+Q96SW2).
T2 construct: endogenous in cells; host or cells: SU-DHL-1
In words: Western blotting of IKZF1 in SU-DHL-1 cells. The data set is classed as cell-based. As to conditions: FOLR1-positive SU-DHL-1 cells, 12 hours. The procedure: as §3

The target in data set [9] is T3, BRD4 (Homo sapiens, UniProt O60885).
T3 construct: endogenous in cells; host or cells: HeLa
The data set can be described thus: Western blot analysis of BRDs protein levels in HeLa cells. It counts as cell-based.

The subject of data set [10] is BRDs. In words: Western blot analysis of BRDs in OVCAR-8 ovary cancer cells. It counts as cell-based. As to conditions: OVCAR-8 cells. The protocol: (§5) Cells were lysed in EBC buffer (50 mM Tris pH 7.5, 120 mM NaCl, 0.5% NP-40) supplemented with protease inhibitors (Pierce) and phosphatase inhibitors (phosphatase inhibitor cocktail set I and II, Calbiochem). The protein concentrations of the lysates were measured using the Bio-Rad protein assay reagent on a Beckman Coulter DU-800 spectrophotometer. The lysates were then resolved by SDS-PAGE and immunoblotted with indicated antibodies.
as §3

For data set [11], the system named is MEK1 and MEK2. In words: Western blot analysis of MEK1 and MEK2 levels in HT29 and SK-MEL-28 cells. The data set is classed as cell-based. The protocol:
as §4, §5, §3

The test system of data set [12] is HT-29 cells. In words: Cell viability of HT-29 cells (CCK-8). It counts as cell-based. As to conditions: 72 hours. The protocol: as §1
The test system of data set [13] is SK-MEL-28 cells. In words: Cell viability of SK-MEL-28 cells (CCK-8). The data set is classed as cell-based. As to conditions: 72 hours. The protocol: as §1

Consider `Cc1ncsc1-c1ccc([C@H](C)NC(=O)[C@@H]2C[C@@H](O)CN2C(=O)[C@@H](NC(=O)COCCCOCCNC(=O)C[C@@H]2N=C(c3ccc(Cl)cc3)c3c(sc(C)c3C)-n3c(C)nnc32)C(C)(C)C)cc1` [ARV-771], for which the half-maximal inhibitory concentration (IC50) in [1] came to 183 nM; in data set [2], 1100 nM.
Take `Nc1nc2ncc(CNc3ccc(C(=O)N[C@@H](CCC(=O)NCc4cn(CCCCCCOC(=O)N5C(=O)CCC(N6C(=O)c7cccc(N)c7C6=O)C5=O)nn4)C(=O)O)cc3)nc2c(=O)[nH]1` (stereo partly drawn) [FA-C2-POMA, N^5-((1-(6-((3-(4-amino-1,3-dioxoisoindolin-2-yl)-2,6-dioxopiperidine-1-carbonyl)oxy)hexyl)-1H-1,2,3-triazol-4-yl)methyl)-N^2-(4-(((2-amino-4-oxo-3,4-dihydropteridin-6-yl)methyl)amino)benzoyl)-L-glutamine]: the “degradation of IKZF3” value in data set [3] is “ineffective in degrading IKZF3”. In data set [4], the “competition with biotinylated-pomalidomide to bind CRBN E3 ubiquitin ligase” value was “not compete”. This compound also gave an IC50 in [5] (72 hours) of 62300 nM.
On to `Nc1nc2ncc(CNc3ccc(C(=O)N[C@@H](CCC(=O)NCc4cn(CCSSCCOC(=O)N5C(=O)CCC(N6C(=O)c7cccc(N)c7C6=O)C5=O)nn4)C(=O)O)cc3)nc2c(=O)[nH]1` (stereo partly drawn) [FA-S2-POMA, N^5-((1-(2-((2-((3-(4-amino-1,3-dioxoisoindolin-2-yl)-2,6-dioxopiperidine-1-carbonyl)oxy)ethyl)disulfanyl)ethyl)-1H-1,2,3-triazol-4-yl)methyl)-N^2-(4-(((2-amino-4-oxo-3,4-dihydropteridin-6-yl)methyl)amino)benzoyl)-L-glutamine], for which the “release of pomalidomide after addition of DTT” value in data set [6] is “efficient release of pomalidomide”. In addition, the “degradation of IKZF3” value in data set [3] is listed as “degraded IKZF3 or IKZF1”. In data set [7] (MM.1S cells, 2.5 mM folic acid), the “effect on degrading IKZF3 with co-treatment of folic acid” value is given as “effectively antagonized the effect”. Moreover, in data set [7] (MM.1S cells, CRBN knockout), the “effect on degrading IKZF3 after depletion of endogenous CRBN E3 ubiquitin ligase” value was “completely abolished the effect”. Moreover, the “potency in degrading IKZF3 after pretreatment with S-Ac-GSH” value in data set [7] (MM.1S cells, S-Ac-GSH 1 mM) is listed as “significantly increased the potentcy”. Further, in [7] (MM.1S cells, proteasome inhibitor MG132 or neddylation inhibitor MLN4924), the “effect on degradation of IKZF3 with MG132 or MLN4924” value is given as “blocked the effect”. Moreover, in [7] (co-treatment with pitstop 2 or methyl-β-cyclodextrin (MβCD)), the “effect on degrading IKZFs with endocytosis inhibitor pitstop 2 or MβCD” value is given as “compromised the effect”. Also, in data set [4], the “competition with biotinylated-pomalidomide to bind CRBN E3 ubiquitin ligase” value is listed as “not compete”. Besides, in data set [4] (pretreated with GSH), the “release of active pomalidomide upon treatment with reducing agent GSH (pulldown)” value is reported as “can release pomalidomide”. This compound also registered an IC50 in [5] (72 hours) of 1000 nM. Further, in [5] (S-Ac-GSH 1 mM), the “potency in inhibiting proliferation after pretreatment with S-Ac-GSH” value was “significantly increased potency”. In data set [5] (folic acid co-treatment, 72 hours), the “potency for suppression of proliferation with co-treatment of folic acid” value was “significant reduction in potency”. Moreover, the “degradation of IKZF1” value in data set [8] was “degraded IKZF3 or IKZF1”.
`Cc1ncsc1-c1ccc([C@H](C)NC(=O)[C@@H]2C[C@@H](NC(=O)CCCCn3cc(CNC(=O)CC[C@H](NC(=O)c4ccc(NCc5cnc6nc(N)[nH]c(=O)c6n5)cc4)C(=O)O)nn3)CN2C(=O)[C@@H](NC(=O)COCCCOCCNC(=O)C[C@@H]2N=C(c3ccc(Cl)cc3)c3c(sc(C)c3C)-n3c(C)nnc32)C(C)(C)C)cc1` [Folate-ARV-771N]: the “degrading BRDs” value in [9] (HeLa cells, even at 100 nM) is “incapable of degrading BRDs”. In addition, in data set [10], the “degradation of BRDs” value is reported as “but not Folate-ARV-771N, degraded BRDs”.
As for `Cc1ncsc1-c1ccc([C@H](C)NC(=O)[C@@H]2C[C@@H](OC(=O)CCCCn3cc(CNC(=O)CC[C@H](NC(=O)c4ccc(NCc5cnc6nc(N)[nH]c(=O)c6n5)cc4)C(=O)O)nn3)CN2C(=O)[C@@H](NC(=O)COCCCOCCNC(=O)C[C@@H]2N=C(c3ccc(Cl)cc3)c3c(sc(C)c3C)-n3c(C)nnc32)C(C)(C)C)cc1` [Folate-ARV-771], in data set [9] (HeLa cells pretreated with MβCD), the “effect in degrading BRD4 after pretreatment with endocytosis inhibitor MβCD” value was “efficiently blocked the effect”.
For the compound `Cc1ncsc1-c1ccc([C@H](C)NC(=O)[C@@H]2C[C@@H](OC(=O)CCCCn3cc(CNC(=O)CC[C@H](NC(=O)c4ccc(NCc5cnc6nc(N)[nH]c(=O)c6n5)cc4)C(=O)O)nn3)CN2C(=O)[C@@H](NC(=O)CCCCCCCCCCNCCCONC(=O)c2ccc(F)c(F)c2Nc2ccc(I)cc2F)C(C)(C)C)cc1` [Folate-MS432, N^2-(4-(((2-amino-4-oxo-3,4-dihydropteridin-6-yl)methyl)amino)benzoyl)-N^5-((1-(5-(((3R,5S)-1-((S)-2-(11-((3-((3,4-difluoro-2-((2-fluoro-4-iodophenyl)amino)benzamido)oxy)propyl)amino)undecanamido)-3,3-dimethylbutanoyl)-5-(((S)-1-(4-(4-methylthiazol-5-yl)phenyl)ethyl)carbamoyl)pyrrolidin-3-yl)oxy)-5-oxopentyl)-1H-1,2,3-triazol-4-yl)methyl)-L-glutamine], the “degradation of MEK1 and MEK2” value in data set [11] (HT29 and SK-MEL-28 cells, dose- and time-dependent) was “degraded MEK1 and MEK2”. Moreover, in data set [11] (HT-29 and SK-MEL-28 cells, folic acid pretreatment), the “effect in degrading MEK1 and MEK2 after pretreatment of folic acid” value is reported as “blocked the effect”. The “degradation of MEK1/2 after pretreatment with VHL ligand Ac-VHL” value in data set [11] (HT-29 cells, Ac-VHL pretreatment) was “blocked the degradation of MEK1/2”. Also, the IC50 was found to be 436 nM in data set [12] (Homo sapiens) and 390 nM in data set [13] (Homo sapiens).
As to `Cc1ncsc1-c1ccc([C@H](C)NC(=O)[C@@H]2C[C@@H](O)CN2C(=O)[C@@H](NC(=O)CCCCCCCCCCNCCCONC(=O)c2ccc(F)c(F)c2Nc2ccc(I)cc2F)C(C)(C)C)cc1` [MS432, reference compound], the IC50 in [12] stood at 176 nM; in data set [13], 32.4 nM.

The term IC50 denotes the point on the concentration scale where inhibition reaches its midpoint.
